US9457030B2, “Compositions and methods for the treatment of juvenile neuronal ceroid lipofuscinosis and related disorders” (BOARD OF REGENTS OF THE UNIVERSITY OF NEBRASKA, priority 2012, dated 2016)
“Also recorded” adds a separate entry of the source.

Key:
[1] = test system: CLN3^Δex7/8 microglia; test: IL-1β and TNF-α production by primary microglia (ELISA); assay type: cell-based, mouse; conditions: 1 hour pre-treatment, then 20 μM ceramide+neuron lysates for 24 hours, CLN3 mutant microglia
Description: (§1) FIG. 21. PDE-4 inhibitors attenuate IL-1β and TNF-α production in CLN3^Δex7/8 microglia. Primary microglia were isolated from the brains of CLN3 WT or CLN3 mutant mice, whereupon cells were pre-treated with various concentrations of the phosphodiesterase-4 inhibitor propentofylline (PPF) for 1 hour followed by a combination of molecules known to be elevated in the JNCL brain (20 μM ceramide+neuron lysates) for 24 hours. Conditioned medium was collected at 24 hours post-treatment and IL-1β and TNF-α expression was determined by ELISA. **, p<0.01 for WT versus CLN3 mutant microglia; #, p<0.05; ##, p<0.01; ###, p<0.001 for CLN3 mutant microglia treated with PPF versus vehicle control.
as §1, with “22.” for “21.”, “rolipram (Rol)” for “propentofylline (PPF)”, “p<0.05;” for “p<0.05; ##, p<0.01;”, “Rol” for “PPF”
as §1, with “24.” for “21.”, “attenuate” for “attenuate IL-1β and”, “roflumilast (Rof)” for “propentofylline (PPF)”, “and” for “and IL-1β and”, “microglia.” for “microglia; #, p<0.05; ##, p<0.01; ###, p<0.001 for CLN3 mutant microglia treated with PPF versus vehicle control.”
In these experiments, primary microglia are isolated from the brains of CLN3^Δex7/8 and WT mice^8,25-27. Microglia are exposed to previously optimized concentrations of glutamate (50 μM), ATP (5 mM), ceramide (20-100 μM), neuronal lysate (1:2 or 1:5 dilution), or LPS+ATP as a positive control (100 ng/ml and 5 mM, respectively) for 24 hours, whereupon interleukin-1β (IL-1β) and tumor necrosis factor-α (TNF-α) expression are quantitated by ELISA. These cytokines were selected for analysis because they have been directly implicated in contributing to microglia-induced neuronal cell death^14,28 and also because they intersect with oxidative pathways described herein. […] In addition, CLN3 loss is examined to determine if the loss augments caspase-1 activity, a key inflammasome component that senses oxidative stress and lysosomal damage, resulting in IL-1β cleavage and secretion by microglia^8. Here, CLN3^Δex7/8 and WT microglia are exposed to the same stimuli described above, followed by incubation with the FLICA reagent (Immunochemistry Technologies LLC), a caspase-1 substrate that emits fluorescence when cleaved by the active enzyme^29. […] Indeed, studies support this expectation because caspase-1 activity was elevated in CLN3^Δex7/8 microglia compared to WT cells (FIG. 3).

[2] = test system: CLN3^Δex7/8 microglia; test: Intracellular cAMP in primary microglia; assay type: cell-based, mouse; conditions: rolipram 10 μM in FIG. 23, 24 hours post-treatment
Description: FIG. 23. CLN3^Δex7/8 microglia display reduced intracellular cAMP constitutively, which is enhanced by the PDE-4 inhibitors. Primary microglia were isolated from the brains of CLN3 WT or CLN3 mutant mice, whereupon cells were pre-treated with the phosphodiesterase-4 inhibitor rolipram (Rol; 10 μM) for 1 hour followed by a combination of molecules known to be elevated in the JNCL brain (20 μM ceramide+neuron lysates) for 24 hours. Intracellular cAMP levels were determined at 24 hours post-treatment (*, p<0.05).

[3] = test system: astrocytes; conditions: cited from earlier work

SMILES	IL-1β production [1]	TNF-α production [1]	IL-1β production ([1]; listed as PPF)	Intracellular cAMP levels [2]	glutamate transporter expression in astrocytes [3]
O=C(Nc1c(Cl)cncc1Cl)c1ccc(OC(F)F)c(OCC2CC2)c1 [roflumilast]	inhibit	attenuate	–	–	–
CCCn1cnc2c1c(=O)n(CCCCC(C)=O)c(=O)n2C [propentofylline]	attenuate	attenuate	significantly reduced IL-1β release	increased	increase glutamate transporter expression in astrocytes
COc1ccc(C2CNC(=O)C2)cc1OC1CCCC1 (stereo not shown) [rolipram]	attenuate; also recorded: significantly reduced IL-1β release	attenuate	–	enhanced; also recorded: increased	–
